For one test, the system named is 22Rv1 Cell. The test is described as follows: 22RV1 cell growth inhibition, CellTiter-Glo, 72 h. The class given is cell-based. The following applies: Homo sapiens, 22Rv1, 72 h, 22RV1 cells, 72 h culture. The method, then: (§1) 22RV1 or vCap cells were cultured in RPMI-1640 medium (10% fetal bovine serum and 100 units (per mL) of penicillin/streptomycin dual antibody were added to RPMI-1640) in a 37° C., 5% CO2 cell incubator. Cells at the logarithmic growth phase were inoculated onto a 96-well cell culture plate at 5×10^3 cells/100 μL/well and cultured overnight. Solutions of different concentrations of an active compound in DMSO were added, with the final concentration being 0.5% DMSO. The positive control was 1% TweeN2O, and the negative control was 0.5% DMSO. After 72 h of culture, an equal volume of CellTiter-Glo was added to each well, and the mixtures were mixed homogeneously by shaking for 2 min. The plate was let stand at room temperature for 10 min, and fluorescence signal values were read using a microplate reader. Data were analyzed using Prism 7.0 and graphs were generated. The values are shown as mean f SEM (N=2). […] The X-axis represents compound concentration (μM), and the Y-axis represents % inhibition.
Background: In ATP-based viability assays light output follows the ATP content of the culture.

A further test deals with vCap Cell. The test is described as follows: vCap cell growth inhibition, CellTiter-Glo, 72 h. The format is cell-based. The note with it: Homo sapiens, VCaP, 72 h, vCap cells, 72 h culture. The method, then:
as §1

For 43 molecules, IC50 results are on record in patent US20240109868A1, “EP300/CBP MODULATOR, PREPARATION METHOD THEREFOR AND USE THEREOF” (Miracure Biotechnology Limited, priority 2022, published 2024).

As usually defined, the IC50 is the concentration that gives 50% inhibition. Higher therefore signals weaker potency in that assay.

A value given as a limit tells only on which side of the number the result lay.

Take `CCN1CCC(c2cc3c(c(N4CCCc5cc(-c6cnn(C)c6)c(C(F)F)cc54)c2)CN(C(=O)NC)CC3)CC1=O` (centres unmarked) [Compound M001186]: the IC50 in the test on 22Rv1 Cell and in the test on vCap Cell was less than 1 µM each time.
For the molecule `CNC(=O)N1CCc2cc(C3CCN(CC(C)(C)O)C(=O)C3)cc(N3CCCc4cc(-c5cnn(C)c5)c(C(F)F)cc43)c2C1` (centres unmarked) [Compound M001280], the IC50 in the test on 22Rv1 Cell was less than 1 µM; in the test with vCap Cell, greater than 1 µM.
In the case of `CNC(=O)N1Cc2cc(C3CC4CCC(C3)N4C(C)=O)cc(N3CCCc4cc(-c5cnn(C)c5)c(C(F)F)cc43)c2C1` (centres unmarked) [Compound M001095], the concentration for half-maximal inhibition (IC50) in the test on 22Rv1 Cell and with vCap Cell was greater than 1 µM in each case.
With `CNC(=O)N1CCc2cc(C3CCN(C)C3)cc(N3CCCc4cc(-c5cnn(C)c5)c(C(F)F)cc43)c2C1` (centres unmarked) [Compound M001051], the half-inhibitory concentration (IC50) in the test with 22Rv1 Cell and in the test with vCap Cell was greater than 1 µM in each case.
In the case of `CCN1CCC(c2cc3c(c(N4CCCc5cc(-c6cnn(C)c6)c(C(F)F)cc54)c2)CN(C(C)=O)C3)CC1=O` (centres unmarked) [Compound M001189], the IC50 in the test on 22Rv1 Cell and in the test on vCap Cell was less than 1 µM in each case.
Turning to `CN1CCC(c2cc3c(c(N4CCCc5cc(-c6cnn(C)c6)c(C(F)F)cc54)c2)CN(C(=O)C2CC2)C3)CC1=O` (centres unmarked) [Compound M001164], the 50% inhibitory concentration (IC50) with 22Rv1 Cell and in the test with vCap Cell was greater than 1 µM throughout.
For `CC(=O)N1Cc2cc(C3CCC(=O)N(CC(C)(C)O)C3)cc(N3CCCc4cc(-c5cnn(C)c5)c(C(F)F)cc43)c2C1` (centres unmarked) [Compound M001231], the half-inhibitory concentration (IC50) in the test with 22Rv1 Cell and in the test with vCap Cell was less than 1 µM in each case.
For the molecule `CNC(=O)N1Cc2cc(C3CCN(C(C)=O)CC3)cc(N3CCCc4cc(-c5cnn(C)c5)c(C(F)F)cc43)c2C1` [Compound M001161], the IC50 in the test with 22Rv1 Cell was greater than 1 µM; with vCap Cell it was less than 1 µM.
For the molecule `CNC(=O)N1CCc2cc(C3CCNC(=O)C3)cc(N3CCCc4cc(-c5cnn(C)c5)c(C(F)F)cc43)c2C1` (centres unmarked) [Compound M001123], the IC50 in the test on 22Rv1 Cell is greater than 1 µM; with vCap Cell it was less than 1 µM.
`COC(=O)N1Cc2cc(C3CCC(OC)CC3)cc(N3CCCc4cc(-c5cnn(C)c5)c(C(F)F)cc43)c2C1` (centres unmarked) [Compound M001203]: the IC50 in the test on 22Rv1 Cell and with vCap Cell was greater than 1 µM each time.
In the case of `CC(=O)N1Cc2cc(C3CCN(C)C3)cc(N3CCCc4cc(-c5cnn(C)c5)c(C(F)F)cc43)c2C1` (centres unmarked) [Compound M001047], the IC50 with 22Rv1 Cell and with vCap Cell was greater than 1 µM in each case.
Turning to `Cn1cc(-c2cc3c(cc2C(F)F)N(c2cccc4c2CN(C(N)=O)CCC4)CCC3)cn1` [Compound M001213], the 50% inhibitory concentration (IC50) with 22Rv1 Cell and with vCap Cell was greater than 1 µM in each case.
On to `CNC(=O)N1CCc2cc(C3CCN(CCOC)C(=O)C3)cc(N3CCCc4cc(-c5cnn(C)c5)c(C(F)F)cc43)c2C1` (centres unmarked) [Compound M001188], for which the concentration for half-maximal inhibition (IC50) in the test on 22Rv1 Cell and in the test with vCap Cell was less than 1 µM in each case.
As to `CNC(=O)N1CCc2cc(N3CCN(C)CC3)cc(N3CCCc4cc(-c5cnn(C)c5)c(C(F)F)cc43)c2C1` [Compound M001045], the IC50 with 22Rv1 Cell and with vCap Cell was greater than 1 µM throughout.
On to `CNC(=O)N1CCc2cc(C3CCN(C(=O)C4CCNC4)CC3)cc(N3CCCc4cc(-c5cnn(C)c5)c(C(F)F)cc43)c2C1` (centres unmarked) [Compound M001075], for which the IC50 in the test on 22Rv1 Cell and in the test with vCap Cell was greater than 1 µM throughout.
On to `CNC(=O)N1CCCc2cccc(N3CCCc4cc(-c5cnn(C)c5)c(C(F)F)cc43)c2C1` [Compound M001211], for which the IC50 in the test with 22Rv1 Cell and in the test on vCap Cell was greater than 1 µM each time.
Consider `CC(=O)N1Cc2cc(C3CCNC(=O)C3)cc(N3CCCc4cc(-c5cnn(C)c5)c(C5CC5)cc43)c2C1` (centres unmarked) [Compound M001219, 4-{2-acetyl-7-[7-cyclopropyl-6-(1-methylpyrazol-4-yl)-3,4-dihydro-2H-quinolin-1-yl]-1,3-dihydroisoindol-5-yl}piperidin-2-one], for which the IC50 in the test with 22Rv1 Cell and in the test with vCap Cell was less than 1 µM in each case.
As to `COC1CCC(c2cc3c(c(N4CCCc5cc(-c6cnn(C)c6)c(C(F)F)cc54)c2)CN(C(C)=O)CC3)CC1` (centres unmarked) [Compound M001196], the IC50 in the test on 22Rv1 Cell and with vCap Cell was greater than 1 µM each time.
Regarding `CCN1CCC(c2cc3c(c(N4CCCc5cc(-c6cnn(C)c6)c(C(F)F)cc54)c2)CN(C(C)=O)CCC3)CC1=O` (centres unmarked) [Compound M001264], the half-inhibitory concentration (IC50) with 22Rv1 Cell and in the test on vCap Cell was greater than 1 µM each time.
Regarding `CC(=O)N1Cc2cc(C3CCCNC3)cc(N3CCCc4cc(-c5cnn(C)c5)c(C(F)F)cc43)c2C1` (centres unmarked) [Compound M001048], the half-inhibitory concentration (IC50) in the test with 22Rv1 Cell and in the test with vCap Cell was greater than 1 µM throughout.
With `CNC(=O)N1Cc2cc(C3CCN(C(=O)c4ccccc4)CC3)cc(N3CCCc4cc(-c5cnn(C)c5)c(C(F)F)cc43)c2C1` [Compound M001163], the IC50 with 22Rv1 Cell and with vCap Cell was greater than 1 µM each time.
In the case of `CC(=O)N1CCc2cc([C@H]3CC[C@@H](O)CC3)cc(N3CCCc4cc(-c5cnn(C)c5)c(C(F)F)cc43)c2C1` [Compound M001178], the IC50 in the test with 22Rv1 Cell and in the test with vCap Cell was greater than 1 µM throughout.
Turning to `CC(=O)N1Cc2cc(C3CCC(O)CC3)cc(N3CCCc4cc(-c5cnn(C)c5)c(C(F)F)cc43)c2C1` (centres unmarked) [Compound M001064], the IC50 in the test with 22Rv1 Cell was greater than 1 µM; with vCap Cell, less than 1 µM.
As for `CON1CCC(c2cc3c(c(N4CCCc5cc(-c6cnn(C)c6)c(C(F)F)cc54)c2)CN(C(=O)OC(C)(C)C)C3)CC1` [Compound M001275], the IC50 in the test with 22Rv1 Cell and with vCap Cell was greater than 1 µM throughout.
On to `CNC(=O)N1Cc2cc(C3CCNCC3)cc(N3CCCc4cc(-c5cnn(C)c5)c(C(F)F)cc43)c2C1` [Compound M001042], for which the IC50 with 22Rv1 Cell and in the test on vCap Cell was greater than 1 µM each time.
Turning to `CNC(=O)N1CCc2cc(C3CCN(C)CC3)cc(N3CCCc4cc(-c5cnn(C)c5)c(C(F)F)cc43)c2C1` [Compound M001018], the half-maximal inhibitory concentration (IC50) in the test on 22Rv1 Cell and in the test on vCap Cell was greater than 1 µM each time.
With `CNC(=O)N1CCc2cc(C3=CC4CCC(C3)N4)cc(N3CCCc4cc(-c5cnn(C)c5)c(C(F)F)cc43)c2C1` (centres unmarked) [Compound M001088], the 50% inhibitory concentration (IC50) in the test with 22Rv1 Cell and with vCap Cell was greater than 1 µM throughout.
As for `CNC(=O)N1CCc2cc(C3CCN(CC(F)(F)F)C(=O)C3)cc(N3CCCc4cc(-c5cnn(C)c5)c(C(F)F)cc43)c2C1` (centres unmarked) [Compound M001253], the IC50 with 22Rv1 Cell and in the test on vCap Cell was less than 1 µM throughout.
As to `CC(=O)N1Cc2cc(C3CCC(F)(F)CC3)cc(N3CCCc4cc(-c5cnn(C)c5)c(C(F)F)cc43)c2C1` [Compound M001066], the IC50 in the test on 22Rv1 Cell and in the test on vCap Cell was greater than 1 µM in each case.
With `CC(=O)N1Cc2cc(-c3ccn(C)c(=O)c3)cc(N3CCCc4cc(-c5cnn(C)c5)c(C(F)F)cc43)c2C1` [Compound M001128], the half-inhibitory concentration (IC50) with 22Rv1 Cell and with vCap Cell was greater than 1 µM in each case.
In the case of `CNC(=O)N1C2CCC1CC(c1cc3c(c(N4CCCc5cc(-c6cnn(C)c6)c(C(F)F)cc54)c1)CN(C(C)=O)C3)C2` (centres unmarked) [Compound M001129], the 50% inhibitory concentration (IC50) with 22Rv1 Cell and with vCap Cell was less than 1 µM in each case.
For `CNC(=O)N1CCc2cc([C@@H]3CCC(=O)N(C)C3)cc(N3CCCc4cc(-c5cnn(C)c5)c(C(F)F)cc43)c2C1` [Compound M001235], the half-maximal inhibitory concentration (IC50) in the test with 22Rv1 Cell and in the test on vCap Cell was less than 1 µM each time.
Consider `CNC(=O)N1Cc2cc(-c3ccn(C)c(=O)c3)cc(N3CCCc4cc(-c5cnn(C)c5)c(C(F)F)cc43)c2C1` [Compound M001122], for which the IC50 in the test with 22Rv1 Cell and in the test on vCap Cell was greater than 1 µM each time.
As for `CC(=O)N1Cc2cc(C3CCC(=O)CC3)cc(N3CCCc4cc(-c5cnn(C)c5)c(C(F)F)cc43)c2C1` [Compound M001102], the half-inhibitory concentration (IC50) was greater than 1 µM in the test on 22Rv1 Cell and less than 1 µM in the test on vCap Cell.
Consider `CNC(=O)N1CCc2cc(C3CCC(OC)CC3)cc(N3CCCc4cc(-c5cnn(C)c5)c(C(F)F)cc43)c2C1` (centres unmarked) [Compound M001198], for which the half-inhibitory concentration (IC50) in the test on 22Rv1 Cell and in the test on vCap Cell was greater than 1 µM throughout.
As for `CC(=O)N1Cc2cc(C3CCN(C[C@H](C)O)CC3)cc(N3CCCc4cc(-c5cnn(C)c5)c(C(F)F)cc43)c2C1` [Compound M001030], the IC50 with 22Rv1 Cell and with vCap Cell was greater than 1 µM throughout.
`CC(=O)N1Cc2cc(C3CCN(C(=O)C4CCN(C)C4)CC3)cc(N3CCCc4cc(-c5cnn(C)c5)c(C(F)F)cc43)c2C1` (centres unmarked) [Compound M001087]: the concentration for half-maximal inhibition (IC50) in the test with 22Rv1 Cell and in the test with vCap Cell was greater than 1 µM each time.
Regarding `CNC(=O)N1CCc2cc(C3CCN(C(C)=O)CC3)cc(N3CCCc4cc(-c5cnn(C)c5)c(C(F)F)cc43)c2C1` [Compound M001068], the IC50 in the test on 22Rv1 Cell and in the test with vCap Cell was less than 1 µM in each case.
In the case of `CNC(=O)N1Cc2cc(C3CC4CCC(C3)N4C(=O)OC)cc(N3CCCc4cc(-c5cnn(C)c5)c(C(F)F)cc43)c2C1` (centres unmarked) [Compound M001137], the IC50 in the test on 22Rv1 Cell and with vCap Cell was greater than 1 µM in each case.
As to `CNC(=O)N1Cc2cc(C3CCN(C(=O)C4CC4)CC3)cc(N3CCCc4cc(-c5cnn(C)c5)c(C(F)F)cc43)c2C1` [Compound M001162], the IC50 with 22Rv1 Cell and in the test on vCap Cell was greater than 1 µM throughout.
For the molecule `CNC(=O)N1CCc2cc(C3CCOCC3)cc(N3CCCc4cc(-c5cnn(C)c5)c(C(F)F)cc43)c2C1` [Compound M001184], the half-inhibitory concentration (IC50) in the test with 22Rv1 Cell was greater than 1 µM; in the test with vCap Cell it was less than 1 µM.
For the molecule `CNC(=O)N1CCc2cc(C3CCC(=O)CC3)cc(N3CCCc4cc(-c5cnn(C)c5)c(C(F)F)cc43)c2C1` [Compound M001103], the IC50 in the test on 22Rv1 Cell and in the test on vCap Cell was greater than 1 µM throughout.
Consider `CNC(=O)N1CCc2cc(-c3ccn(C)c(=O)c3)cc(N3CCCc4cc(-c5cnn(C)c5)c(C(F)F)cc43)c2C1` [Compound M001125], for which the IC50 was greater than 1 µM with 22Rv1 Cell and less than 1 µM with vCap Cell.
